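Tested at 5 concentrations; 48 h exposure; 96-well plates; endpoints linearly interpolated, else capped at highest concentration. GI50: concentration for 50% inhibition of growth.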 Activity calls are given as the source filed them. Rule as the data show it: active = GI50 up to about 1.1 µM and inactive = higher.
Experiments:
Assay in all cases: NCI-60 cell line screen, 48 h
SR = tested on: SR
COLO 205 = tested on: COLO 205
ACHN = tested on: ACHN
SW-620 = tested on: SW-620
786-0 = tested on: 786-0
SNB-78 = tested on: SNB-78
HOP-18 = tested on: HOP-18
DLD-1 = tested on: DLD-1
NCI-H522 = tested on: NCI-H522
LXFL 529 = tested on: LXFL 529
NCI-H23 = tested on: NCI-H23
LOX IMVI = tested on: LOX IMVI
DMS-273 = tested on: DMS-273
OVCAR-3 = tested on: OVCAR-3
NCI/ADR-RES = tested on: NCI/ADR-RES

**Q.** With O=C(Cc1ccccc1)N/N=C(/c1nc2ccc([N+](=O)[O-])cc2nc1O)C(O)c1ccccc1Cl (centres undefined) as the molecule, how does the GI50 (SR) read?
**A.** The GI50 was > 100 µM (inactive).

**Q.** What about the GI50 (COLO 205) of the same molecule?
**A.** Its GI50 is > 100 µM (inactive).

**Q.** And the GI50 (ACHN)?
**A.** Its GI50 is 56.6 µM (inactive).

**Q.** And the GI50 (SW-620)?
**A.** Its GI50 is 89.9 µM (inactive).

**Q.** What about the GI50 (786-0) of the same molecule?
**A.** Its GI50 is > 100 µM (inactive).

**Q.** What about the GI50 (SNB-78) of the same molecule?
**A.** Its GI50 is > 100 µM (inactive).

**Q.** And the GI50 (HOP-18)?
**A.** Its GI50 is > 100 µM (inactive).

**Q.** And the GI50 (DLD-1)?
**A.** Its GI50 is > 100 µM (inactive).

**Q.** What about the GI50 (NCI-H522) of the same molecule?
**A.** Its GI50 is 6.28 µM (inactive).

**Q.** What about the GI50 (LXFL 529) of the same molecule?
**A.** Its GI50 is 69.7 µM (inactive).

**Q.** What about the GI50 (NCI-H23) of the same molecule?
**A.** Its GI50 is > 100 µM (inactive).

**Q.** And the GI50 (LOX IMVI)?
**A.** Its GI50 is > 100 µM (inactive).

**Q.** For CCOC(=O)CCC1(C(=O)OCC)CCCCC1=O (centres undefined), which GI50 (DMS-273) is on record?
**A.** The GI50 was > 100 µM (inactive).

**Q.** What about the GI50 (COLO 205) of the same molecule?
**A.** The GI50 was > 100 µM (inactive).

**Q.** What about the GI50 (OVCAR-3) of the same molecule?
**A.** The GI50 was > 100 µM (inactive).

**Q.** What about the GI50 (ACHN) of the same molecule?
**A.** Its GI50 is > 100 µM (inactive).

**Q.** And the GI50 (SW-620)?
**A.** Its GI50 is > 100 µM (inactive).

**Q.** What about the GI50 (786-0) of the same molecule?
**A.** The GI50 was > 100 µM (inactive).

**Q.** What about the GI50 (SNB-78) of the same molecule?
**A.** The GI50 was > 100 µM (inactive).

**Q.** And the GI50 (HOP-18)?
**A.** Its GI50 is 81.8 µM (inactive).

**Q.** What about the GI50 (DLD-1) of the same molecule?
**A.** The GI50 was > 100 µM (inactive).

**Q.** What about the GI50 (NCI-H522) of the same molecule?
**A.** Its GI50 is > 100 µM (inactive).

**Q.** And the GI50 (LXFL 529)?
**A.** Its GI50 is > 100 µM (inactive).

**Q.** And the GI50 (NCI-H23)?
**A.** Its GI50 is > 100 µM (inactive).

**Q.** What about the GI50 (LOX IMVI) of the same molecule?
**A.** The GI50 was > 100 µM (inactive).

**Q.** For CCOC(=O)Cc1cc(OC)c(OC)cc1/C(Cl)=C(\CO)c1ccc(OC)c(OC)c1, which GI50 (DMS-273) is on record?
**A.** Its GI50 is > 100 µM (inactive).

**Q.** And the GI50 (COLO 205)?
**A.** Its GI50 is > 100 µM (inactive).

**Q.** And the GI50 (OVCAR-3)?
**A.** The GI50 was 57.7 µM (inactive).

**Q.** What about the GI50 (ACHN) of the same molecule?
**A.** The GI50 was 81.1 µM (inactive).

**Q.** What about the GI50 (SW-620) of the same molecule?
**A.** The GI50 was > 100 µM (inactive).

**Q.** And the GI50 (SNB-78)?
**A.** The GI50 was 59 µM (inactive).

**Q.** And the GI50 (HOP-18)?
**A.** Its GI50 is > 100 µM (inactive).

**Q.** And the GI50 (DLD-1)?
**A.** Its GI50 is > 100 µM (inactive).

**Q.** And the GI50 (NCI-H23)?
**A.** Its GI50 is 97.7 µM (inactive).

**Q.** And the GI50 (LOX IMVI)?
**A.** The GI50 was 87.9 µM (inactive).

**Q.** For C=C(C)C1Cc2c(cc(O)c3c(=O)c4ccccc4n(C)c23)O1 (centres undefined), which GI50 (SR) is on record?
**A.** Its GI50 is 29.9 µM (inactive).

**Q.** And the GI50 (DMS-273)?
**A.** Its GI50 is 31.3 µM (inactive).

**Q.** What about the GI50 (COLO 205) of the same molecule?
**A.** Its GI50 is > 100 µM (inactive).

**Q.** What about the GI50 (ACHN) of the same molecule?
**A.** Its GI50 is 40.9 µM (inactive).

**Q.** What about the GI50 (SW-620) of the same molecule?
**A.** Its GI50 is 36 µM (inactive).

**Q.** What about the GI50 (SNB-78) of the same molecule?
**A.** The GI50 was 35.6 µM (inactive).

**Q.** And the GI50 (HOP-18)?
**A.** The GI50 was 16 µM (inactive).

**Q.** And the GI50 (DLD-1)?
**A.** Its GI50 is 27.1 µM (inactive).

**Q.** And the GI50 (NCI-H522)?
**A.** Its GI50 is 19.9 µM (inactive).

**Q.** And the GI50 (LXFL 529)?
**A.** The GI50 was 34 µM (inactive).

**Q.** What about the GI50 (NCI-H23) of the same molecule?
**A.** The GI50 was 32.2 µM (inactive).

**Q.** What about the GI50 (LOX IMVI) of the same molecule?
**A.** The GI50 was 10.7 µM (inactive).

**Q.** What does the source list for COC(=O)C12C3C4C1C1C2C3C41C(=O)O (centres undefined)?
**A.** GI50 (COLO 205): > 100 µM (inactive); GI50 (OVCAR-3): > 100 µM (inactive); GI50 (ACHN): > 100 µM (inactive); GI50 (SW-620): > 100 µM (inactive); GI50 (786-0): > 100 µM (inactive); GI50 (SNB-78): > 100 µM (inactive); GI50 (HOP-18): > 100 µM (inactive); GI50 (DLD-1): > 100 µM (inactive); GI50 (LXFL 529): > 100 µM (inactive); GI50 (NCI-H23): > 100 µM (inactive)

**Q.** How did the GI50 (DMS-273) turn out when COc1cc(C2c3cc4c(cc3[C@@H](Nc3cccc(CO)c3)C3COC(=O)[C@H]23)OCO4)cc(OC)c1O (some centres undefined) was run?
**A.** Its GI50 is 0.153 µM (active).

**Q.** And the GI50 (COLO 205)?
**A.** The GI50 was 1.54 µM (inactive).

**Q.** What about the GI50 (OVCAR-3) of the same molecule?
**A.** The GI50 was 1.32 µM (inactive).

**Q.** What about the GI50 (SW-620) of the same molecule?
**A.** Its GI50 is 1.41 µM (inactive).

**Q.** What about the GI50 (HOP-18) of the same molecule?
**A.** The GI50 was 1.1 µM (active).

**Q.** What about the GI50 (NCI/ADR-RES) of the same molecule?
**A.** Its GI50 is 1.34 µM (inactive).

**Q.** And the GI50 (DLD-1)?
**A.** Its GI50 is 1.43 µM (inactive).

**Q.** And the GI50 (NCI-H522)?
**A.** The GI50 was 1 µM (active).

**Q.** And the GI50 (NCI-H23)?
**A.** Its GI50 is 0.375 µM (active).

**Q.** And the GI50 (LOX IMVI)?
**A.** The GI50 was 0.438 µM (active).

**Q.** What does the source list for Nc1ncnc2c1ncn2C1C(O)C=C(CO)C1O (centres undefined)?
**A.** GI50 (DMS-273): > 625 µM (inactive); GI50 (COLO 205): > 625 µM (inactive); GI50 (OVCAR-3): > 625 µM (inactive); GI50 (SW-620): > 625 µM (inactive); GI50 (SNB-78): > 625 µM (inactive); GI50 (HOP-18): > 625 µM (inactive); GI50 (NCI/ADR-RES): > 625 µM (inactive); GI50 (DLD-1): > 625 µM (inactive); GI50 (LOX IMVI): > 625 µM (inactive)

**Q.** S=C=NCCc1ccccc1 [PHENETHYLISOTHIOCYANATE] was tested. Which GI50 (SR) did it give?
**A.** The GI50 was 0.351 µM (active).

**Q.** What about the GI50 (DMS-273) of the same molecule?
**A.** The GI50 was 0.255 µM (active).

**Q.** What about the GI50 (COLO 205) of the same molecule?
**A.** The GI50 was 0.762 µM (active).

**Q.** And the GI50 (OVCAR-3)?
**A.** Its GI50 is 0.612 µM (active).

**Q.** And the GI50 (ACHN)?
**A.** The GI50 was 1.56 µM (inactive).

**Q.** What about the GI50 (SW-620) of the same molecule?
**A.** Its GI50 is 0.31 µM (active).

**Q.** What about the GI50 (786-0) of the same molecule?
**A.** The GI50 was 0.188 µM (active).

**Q.** And the GI50 (SNB-78)?
**A.** Its GI50 is 0.818 µM (active).

**Q.** What about the GI50 (DLD-1) of the same molecule?
**A.** Its GI50 is 0.0596 µM (active).

**Q.** What about the GI50 (NCI-H522) of the same molecule?
**A.** Its GI50 is 0.193 µM (active).

**Q.** And the GI50 (LXFL 529)?
**A.** Its GI50 is 0.212 µM (active).

**Q.** And the GI50 (NCI-H23)?
**A.** The GI50 was 0.453 µM (active).

**Q.** What about the GI50 (LOX IMVI) of the same molecule?
**A.** The GI50 was 0.194 µM (active).

Reference: ChEMBL document CHEMBL1201862, “PubChem BioAssay data set” (2004)
